In patent publication US20150087673A1, “METHODS FOR USING AND BIOMARKERS FOR AMPK-ACTIVATING COMPOUNDS” (RIGEL PHARMACEUTICALS, INC., priority 2013, published 2015) one finds EC50 data, which are given here for 32 compounds.

In general, EC50 refers to the concentration at which the effect is half-maximal. Low readings indicate higher potency in that assay, high ones lower potency in that assay.

The test deals with AMPK. In words: AMPK activation assay (enzyme-linked immunosorbent assay). The format is cell-based. How it is done: Compounds were assayed for their ability to activate AMPK using an enzyme-linked immunosorbent assay. Reagents and procedures for measuring AMPK activation are well known and kits for AMPK activation assays are commercially available.
For `COc1ccc(CN2CCC(NC(=O)c3ccc(C(=O)N4CCC(Oc5ccc(C(=O)C6CC6)cc5)CC4)nc3)CC2)cc1` [Compound 458, 6-(4-(4-(cyclopropanecarbonyl)phenoxy)piperidine-1-carbonyl)-N-(1-(4-methoxybenzyl)piperidin-4-yl)nicotinamide], the EC50 was < 500 nM. The value for `COc1ccc(Oc2ccc(NC(=O)c3ccc(C(=O)N4CCN(Cc5ccc(F)cc5)CC4)cn3)cc2)cc1` [Compound 54, 5-(4-(4-fluorobenzyl)piperazine-1-carbonyl)-N-(4-(4-methoxyphenoxy)phenyl)picolinamide] was < 500 nM; that for `O=C(Nc1ccc(-c2cc[nH]c2)cc1)c1ccc(C(=O)N2CCN(Cc3ccc(F)cc3)CC2)cn1` [Compound 39, 5-(4-(4-fluorobenzyl)piperazine-1-carbonyl)-N-(4-(1H-pyrrol-3-yl)phenyl)picolinamide] was 1000 to 5000 nM. For `CC(=O)Nc1ccc(OC2CCN(C(=O)c3ccc(C(=O)Nc4ccc(Oc5ccc(F)cc5)nc4)nc3)CC2)cc1` [Compound 408, 5-(4-(4-acetamidophenoxy)piperidine-1-carbonyl)-N-(6-(4-fluorophenoxy)pyridin-3-yl)picolinamide], the EC50 was < 500 nM.

`COc1cccc(CN2CCC(NC(=O)c3ccc(C(=O)N4CCC(Oc5ccc(S(C)(=O)=O)cc5)CC4)nc3)CC2)c1` [Compound 238, N-(1-(3-methoxybenzyl)piperidin-4-yl)-6-(4-(4-(methylsulfonyl)phenoxy)piperidine-1-carbonyl)nicotinamide] gave a 50% effective concentration (EC50) of 1000 to 5000 nM.

Take `CS(=O)(=O)c1ccc(OC2CCN(C(=O)c3cnc(C(=O)NC4CCN(Cc5ccc(C#N)cc5)CC4)cn3)CC2)cc1` [Compound 218, N-(1-(4-cyanobenzyl)piperidin-4-yl)-5-(4-(4-(methylsulfonyl)phenoxy)piperidine-1-carbonyl)pyrazine-2-carboxamide]: the EC50 is < 500 nM.

On to `N#Cc1ccc(CN2CCC(NC(=O)c3ccc(C(=O)NC4CCN(c5ccc(C#N)cc5)CC4)cn3)CC2)cc1` [Compound 166, N2-(1-(4-cyanobenzyl)piperidin-4-yl)-N5-(1-(4-cyanophenyl)piperidin-4-yl)pyridine-2,5-dicarboxamide], for which the EC50 was < 500 nM. The value for `CS(=O)(=O)c1ccc(OC2CCN(C(=O)c3ccc(C(=O)NC4CCN(Cc5ccc(F)cc5)CC4)nc3)CC2)cc1` [Compound 226, N-(1-(4-fluorobenzyl)piperidin-4-yl)-5-(4-(4-(methylsulfonyl)phenoxy)piperidine-1-carbonyl)picolinamide] was < 500 nM.

For `O=C(NC1CCN(Cc2ccc(F)cc2)CC1)c1ccc(C(=O)N2CCC(Oc3ccc(F)cc3)CC2)cn1` [Compound 180, N-(1-(4-fluorobenzyl)piperidin-4-yl)-5-(4-(4-fluorophenoxy)piperidine-1-carbonyl)picolinamide], the concentration for a half-maximal effect (EC50) was < 500 nM. The value for `O=C(Nc1ccc(Oc2cccc(F)c2)cc1)c1ccc(C(=O)N2CCN(Cc3ccc(F)cc3)CC2)cn1` [Compound 55, 5-(4-(4-fluorobenzyl)piperazine-1-carbonyl)-N-(4-(3-fluorophenoxy)phenyl)picolinamide] was < 500 nM. For the compound `O=C(N[C@@H]1CCNC[C@@H]1F)c1ccc(C(=O)N2CCN(Cc3ccc(F)cc3)CC2)cn1` (relative stereo) [Compound 102, 5-(4-(4-fluorobenzyl)piperazine-1-carbonyl)-N-(cis-3-fluoropiperidin-4-yl)picolinamide], the half-maximal effective concentration (EC50) was in the range of 5000 to 10000 nM. Take `N#Cc1ccc(O[C@H]2CC[C@@H](NC(=O)c3ccc(C(=O)N4CCC(Oc5ccc(C(F)(F)F)cc5)CC4)cn3)CC2)cc1F` [Compound 199, N-((cis)-4-(4-cyano-3-fluorophenoxy)cyclohexyl)-5-(4-(4-(trifluoromethyl)phenoxy)piperidine-1-carbonyl)picolinamide]: the concentration giving a half-maximal response (EC50) was < 500 nM. The figure for `COc1ccc(CC2CCN(C(=O)c3ccc(C(=O)NC4CCN(Cc5ccc(C#N)cc5)CC4)nc3)CC2)cc1F` [Compound 146, N-(1-(4-cyanobenzyl)piperidin-4-yl)-5-(4-(3-fluoro-4-methoxybenzyl)piperidine-1-carbonyl)picolinamide] is < 500 nM. The figure for `CC(=O)c1ccc(OC2CCN(C(=O)c3ccc(C(=O)Nc4ccc(Oc5ccc(F)cc5)nc4)cn3)CC2)cc1` [Compound 395, 6-(4-(4-acetylphenoxy)piperidine-1-carbonyl)-N-(6-(4-fluorophenoxy)pyridin-3-yl)nicotinamide] is < 500 nM; for `CC(=O)c1ccc(OC2CCN(C(=O)c3ccc(C(=O)NC4CCN(Cc5ccc(F)cc5)CC4)cn3)CC2)cc1` [Compound 391, 6-(4-(4-acetylphenoxy)piperidine-1-carbonyl)-N-(1-(4-fluorobenzyl)piperidin-4-yl)nicotinamide] it is < 500 nM. Consider `CS(=O)(=O)c1ccc(N2CCN(C(=O)c3ccc(C(=O)NC4CCN(Cc5ccc(C#N)cc5)CC4)nc3)CC2)cc1` [Compound 250, N-(1-(4-cyanobenzyl)piperidin-4-yl)-5-(4-(4-(methylsulfonyl)phenyl)piperazine-1-carbonyl)picolinamide], for which the concentration for a half-maximal effect (EC50) is < 500 nM. The figure for `CS(=O)(=O)c1ccc(OC2CCN(C(=O)c3cnc(C(=O)Nc4ccc(Oc5ccc(F)cc5)nc4)cn3)CC2)cc1` [Compound 207, N-(6-(4-fluorophenoxy)pyridin-3-yl)-5-(4-(4-(methylsulfonyl)phenoxy)piperidine-1-carbonyl)pyrazine-2-carboxamide] is < 500 nM. Turning to `CC(C)(C)OC(=O)NCCCc1cc(C(=O)N2CCN(Cc3ccc(F)cc3)CC2)cnc1C(=O)NC1CCN(Cc2ccc(C#N)cc2)CC1` [Compound 290, tert-butyl 3-(2-(1-(4-cyanobenzyl)piperidin-4-ylcarbamoyl)-5-(4-(4-fluorobenzyl)piperazine-1-carbonyl)pyridin-3-yl)propylcarbamate], the EC50 is < 500 nM. The value for `O=C(Nc1cccc(-c2ccccc2)c1)c1ccc(C(=O)NC2CCN(Cc3ccccc3)CC2)nc1` [Compound 106, N2-(1-benzylpiperidin-4-yl)-N5-(biphenyl-3-yl)pyridine-2,5-dicarboxamide] was 5000 to 10000 nM. The value for `N#Cc1ccc(OC2CCN(C(=O)c3ccc(C(=O)NC4CCN(Cc5ccc(N6CCCC6)cc5)CC4)nc3)CC2)cc1` [Compound 197, 5-(4-(4-cyanophenoxy)piperidine-1-carbonyl)-N-(1-(4-(pyrrolidin-1-yl)benzyl)piperidin-4-yl)picolinamide] was < 500 nM.

With `N#Cc1ccc(CN2CCC(NC(=O)c3ccc(C(=O)N4CC[C@H](Oc5ccc(F)cc5)C4)cn3)CC2)cc1` [Compound 270, (S)-N-(1-(4-cyanobenzyl)piperidin-4-yl)-5-(3-(4-fluorophenoxy)pyrrolidine-1-carbonyl)picolinamide], the EC50 was < 500 nM.

As for `CCS(=O)(=O)c1ccc(C(=O)C2CCN(C(=O)c3ccc(C(=O)NC4CCN(Cc5ccc(C#N)cc5)CC4)nc3)CC2)cc1` [Compound 260, N-(1-(4-cyanobenzyl)piperidin-4-yl)-5-(4-(4-(ethylsulfonyl)benzoyl)piperidine-1-carbonyl)picolinamide], the EC50 is < 500 nM. The value for `N#Cc1ccc(CN2CCC(NC(=O)c3ccc(C(=O)N4CCC(Oc5ccc(S(=O)(=O)C(F)(F)F)cc5)CC4)nc3)CC2)cc1` [Compound 450, N-(1-(4-cyanobenzyl)piperidin-4-yl)-6-(4-(4-(trifluoromethylsulfonyl)phenoxy)piperidine-1-carbonyl)nicotinamide] was < 500 nM; that for `N#Cc1ccc(CN2CCC(NC(=O)c3ccc(C(=O)N4CC(Oc5ccc(C#N)cc5)C4)cn3)CC2)cc1` [Compound 209, N-(1-(4-cyanobenzyl)piperidin-4-yl)-5-(3-(4-cyanophenoxy)azetidine-1-carbonyl)picolinamide] was < 500 nM; that for `N#Cc1ccc(CN2CCC(NC(=O)c3ccc(C(=O)N4CCC(Oc5ccc(C#N)cc5)CC4)cn3)CC2)cc1` [Compound 135, N-(1-(4-cyanobenzyl)piperidin-4-yl)-5-(4-(4-cyanophenoxy)piperidine-1-carbonyl)picolinamide] was < 500 nM.

`COc1ccc(C(=O)C2CCN(c3ccc(C(=O)N4CCN(Cc5ccc(F)cc5)CC4)cn3)CC2)cc1` [Compound 189, (4-(4-fluorobenzyl)piperazin-1-yl)(6-(4-(4-methoxybenzoyl)piperidin-1-yl)pyridin-3-yl)methanone] came in with a concentration giving a half-maximal response (EC50) of 1000 to 5000 nM. The figure for `N#Cc1ccc(CN2CCC(NC(=O)c3ccc(C(=O)N4CCC(Oc5cccc(C#N)c5)CC4)cn3)CC2)cc1` [Compound 155, N-(1-(4-cyanobenzyl)piperidin-4-yl)-5-(4-(3-cyanophenoxy)piperidine-1-carbonyl)picolinamide] is < 500 nM; for `COc1ccc(C(=O)C2CCN(C(=O)c3ccc(C(=O)NC4CCN(Cc5ccc(OC(F)(F)F)cc5)CC4)cn3)CC2)cc1` [Compound 430, 6-(4-(4-methoxybenzoyl)piperidine-1-carbonyl)-N-(1-(4-(trifluoromethoxy)benzyl)piperidin-4-yl)nicotinamide] it is < 500 nM.

Consider `CN(C)c1ccc(OC2CCN(C(=O)c3ccc(C(=O)NC4CCN(Cc5ccc(C#N)cc5)CC4)cn3)CC2)cc1` [Compound 370, N-(1-(4-cyanobenzyl)piperidin-4-yl)-6-(4-(4-(dimethylamino)phenoxy)piperidine-1-carbonyl)nicotinamide], for which the EC50 is < 500 nM. The value for `CC(=O)c1ccc(OC2CCN(C(=O)c3ccc(C(=O)NC4CCN(Cc5ccc(C#N)cc5)CC4)nc3)CC2)cc1` [Compound 358, 5-(4-(4-acetylphenoxy)piperidine-1-carbonyl)-N-(1-(4-cyanobenzyl)piperidin-4-yl)picolinamide] was < 500 nM; that for `O=C(Nc1ccc(Oc2ccc(F)cc2)nc1)c1cnc(C(=O)N2CCC(C(=O)c3ccc(F)cc3F)CC2)cn1` [Compound 206, 5-(4-(2,4-difluorobenzoyl)piperidine-1-carbonyl)-N-(6-(4-fluorophenoxy)pyridin-3-yl)pyrazine-2-carboxamide] was < 500 nM; that for `O=C(NC1CCN(Cc2ccc(F)cc2)CC1)c1ccc(C(=O)N2CC[C@H](Oc3ccc(F)cc3)C2)cn1` [Compound 182, (S)-N-(1-(4-fluorobenzyl)piperidin-4-yl)-5-(3-(4-fluorophenoxy)pyrrolidine-1-carbonyl)picolinamide] was < 500 nM.
